According to patent US20140200135A1, “Carbamoylmethoxy- and carbamoylmethylthio- and carbamoylmethylamino benzamides for combating invertebrate pests” (BASF SE, priority 2011, published 2014):

Tests used:
Format in all cases: in vivo
[1] = test system: Boll weevil (Anthonomus grandis); assay: Boll weevil microtiter diet test, egg and larval mortality; details: 120 h, 5 days, insect diet, read-out: mortality in comparison with untreated controls
Experimental: For evaluating control of boll weevil (Anthonomus grandis) the test unit consisted of 24-well-microtiter plates containing an insect diet and 20-30 A. grandis eggs.
(§1) The compounds were formulated using a solution containing 75% v/v water and 25% v/v DMSO. Different concentrations of formulated compounds were sprayed onto the insect diet at 20 μl, using a custom built micro atomizer, at two replications.
After application, microtiter plates were incubated at about 23±1° C. and about 50±5% relative humidity for 5 days. Egg and larval mortality was then visually assessed.

[2] = test system: Green Peach Aphid (Myzus persicae); assay: Green peach aphid spray test on bell pepper plants, mortality; details: 120 h, after 5 days, sprayed bell pepper plants, read-out: mortality in comparison with untreated controls
Source text: (§2) The active compounds were formulated in cyclohexanone as a 10,000 ppm solution supplied in tubes. The tubes were inserted into an automated electrostatic sprayer equipped with an atomizing nozzle and they served as stock solutions for which lower dilutions were made in 50% acetone:50% water (v/v). A nonionic surfactant (Kinetic®) was included in the solution at a volume of 0.01% (v/v).
Bell pepper plants at the first true-leaf stage were infested prior to treatment by placing heavily infested leaves from the main colony on top of the treatment plants. Aphids were allowed to transfer overnight to accomplish an infestation of 30-50 aphids per plant and the host leaves were removed. The infested plants were then sprayed by an automated electrostatic plant sprayer equipped with an atomizing spray nozzle. The plants were dried in the sprayer fume hood, removed, and then maintained in a growth room under fluorescent lighting in a 24-hr photoperiod at about 25° C. and about 20-40% relative humidity. Aphid mortality on the treated plants, relative to mortality on untreated control plants, was determined after 5 days.

[3] = test system: Southern Armyworm (Spodoptera eridiana); 2nd Instar Larvae; assay: Southern armyworm foliar spray test on lima bean, mortality; details: for mortality at 1 ppm: Concentration 1 ppm; for mortality at 1 ppm / mortality at 10 ppm / mortality at 30 ppm: southern armyworm, Table D; for mortality at 10 ppm: Concentration 10 ppm; for mortality at 30 ppm: Concentration 30 ppm; for mortality at 500 ppm: Spodoptera, 96 h, 4 days after treatment, lima bean foliage spray, read-out: mortality in comparison with untreated controls
Experimental: as §2
Lima bean plants (variety Sieva) were grown 2 plants to a pot and selected for treatment at the 1st true leaf stage. Test solutions were sprayed onto the foliage by an automated electrostatic plant sprayer equipped with an atomizing spray nozzle. The plants were dried in the sprayer fume hood and then removed from the sprayer. Each pot was placed into perforated plastic bags with a zip closure. About 10 to 11 armyworm larvae were placed into the bag and the bags zipped closed. Test plants were maintained in a growth room at about 25° C. and about 20-40% relative humidity for 4 days, avoiding direct exposure to fluorescent light (24 hour photoperiod) to prevent trapping of heat inside the bags. Mortality and reduced feeding were assessed 4 days after treatment, compared to untreated control plants.

[4] = test system: TOBACCO budworm (Heliothis virescens); assay: Tobacco budworm microtiter diet test, egg and larval mortality; details: 120 h, 5 days, insect diet, read-out: mortality in comparison with untreated controls
Experimental: as §1, with “For evaluating control of tobacco budworm (Heliothis virescens) the test unit consisted of 96-well-microtiter plates containing an insect diet and 15-25 H. virescens eggs. The” for “The”, “10” for “20”
After application, microtiter plates were incubated at about 28±1° C./and about 80±5% relative humidity for 5 days. Egg and larval mortality was then visually assessed.

[5] = test system: Vetch aphid (Megoura viciae); assay: Vetch aphid broad bean leaf disk test, mortality; details: foliar, 120 h, 5 days, adult aphids on broad bean leaf disks, read-out: mortality in comparison with untreated controls
Experimental: For evaluating control of vetch aphid (Megoura viciae) through contact or systemic means the test unit consisted of 24-well-microtiter plates containing broad bean leaf disks.
The compounds were formulated using a solution containing 75% v/v water and 25% v/v DMSO. Different concentrations of formulated compounds were sprayed onto the leaf disks at 2.5 μl, using a custom built micro atomizer, at two replications.
After application, the leaf disks were air-dried and 5-8 adult aphids placed on the leaf disks inside the microtiter plate wells. The aphids were then allowed to suck on the treated leaf disks and incubated at about 23±1° C. and about 50±5% relative humidity for 5 days. Aphid mortality and fecundity was then visually assessed.

[6] = test system: Colorado Potato Beetle (Leptinotarsa decemlineata) (2nd instar larvae); assay: Colorado potato beetle foliar spray test on eggplant, mortality; details: 96 h, 4 days after treatment, Table E; for mortality at 1 ppm: Concentration 1 ppm; for mortality at 10 ppm: Concentration 10 ppm; for mortality at 30 ppm: Concentration 30 ppm
Experimental: as §2
Eggplants were grown 2 plants to a pot and were selected for treatment at the 1st true leaf stage. Test solutions were sprayed onto the foliage by an automated electrostatic plant sprayer equipped with an atomizing spray nozzle. The plants were dried in the sprayer fume hood and then removed from the sprayer. The treated foliage was then cut and removed from the pot and placed in a Petri dish lined with moistened filter paper. Five beetle larvae were introduced into each Petri dish and the dish was covered by a Petri dish lid. Petri dishes were maintained in a growth room at about 25° C. and about 20-40% relative humidity for 4 days, avoiding direct exposure to fluorescent light (24 hour photoperiod) to prevent trapping of heat inside the dishes. Mortality and reduced feeding were assessed 4 days after treatment, compared to untreated control plants.

[7] = test system: Mediterranean Fruitfly (Ceratitis capitata); assay: Mediterranean fruitfly microtiter diet test, egg and larval mortality; details: 120 h, 5 days, insect diet, read-out: mortality in comparison with untreated controls
Experimental: For evaluating control of Mediterranean fruitfly (Ceratitis capitata) the test unit consisted of microtiter plates containing an insect diet and 50-80 C. capitata eggs.
The compounds were formulated using a solution containing 75% v/v water and 25% v/v DMSO. Different concentrations of formulated compounds were sprayed onto the insect diet at 5 μl, using a custom built micro atomizer, at two replications.
After application, microtiter plates were incubated at about 28±1° C. and about 80±5% relative humidity for 5 days. Egg and larval mortality was then visually assessed.

[8] = test system: Diamond Backmoth (Plutella xylostella); assay: Diamond backmoth leaf-dip test, mortality; details: 72 hours after treatment, 3rd instar larvae on dipped cabbage leaves, read-out: mortality in comparison with untreated controls
Experimental: The active compound was dissolved at the desired concentration in a mixture of 1:1 (vol:vol) distilled water:aceteone. Surfactant (Alkamuls® EL 620) was added at a rate of 0.1% (vol/vol). The test solution was prepared at the day of use.
Leaves of cabbage were dipped in test solution and air-dried. Treated leaves were placed in petri dishes lined with moist filter paper and inoculated with ten 3rd instar larvae. Mortality was recorded 72 hours after treatment. Feeding damages were also recorded using a scale of 0-100%.

[9] = test system: Cowpea Aphid (Aphis Craccivora); assay: Cowpea aphid spray test on potted cowpea plants, mortality; details: after 72 hours, sprayed cowpea plants, read-out: mortality in comparison with untreated controls
Experimental: The active compound was dissolved at the desired concentration in a mixture of 1:1 (vol:vol) distilled water:acetone. Surfactant (Alkamuls® EL 620) is added at a rate of 0.1% (vol/vol). The test solution was prepared at the day of use.
Potted cowpea plants were colonized with approximately 50-100 aphids of various stages by manually transferring a leaf tissue cut from infested plant 24 hours before application. Plants were sprayed after the pest population has been recorded. Treated plants were maintained on light carts at about 28° C. Percent mortality was assessed after 72 hours.

[10] = test system: Orchid Thrips (dichromothrips corbetti); assay: Orchid thrips floral-immersion test, mortality; details: 72 hours after treatment, adult thrips, read-out: mortality in comparison with untreated controls
Experimental: Dichromothrips corbetti adults used for bioassay were obtained from a colony maintained continuously under laboratory conditions. For testing purposes, the test compound was diluted in a 1:1 mixture of acetone:water (vol:vol), plus 0.01% vol/vol Alkamuls® EL 620 surfactant.
Thrips potency of each compound was evaluated by using a floral-immersion technique. Plastic petri dishes were used as test arenas. All petals of individual, intact or chid flowers were dipped into treatment solution and allowed to dry. Treated flowers were placed into individual petri dishes along with about 20 adult thrips. The petri dishes were then covered with lids. All test arenas were held under continuous light and a temperature of about 28° C. for duration of the assay. After 3 days, the numbers of live thrips were counted on each flower, and along inner walls of each petri dish. The percent mortality was recorded 72 hours after treatment.

| SMILES | mortality at 2500 ppm [1] [%] | mortality at 2500 ppm [2] [%] | mortality at 1 ppm [3] [%] | mortality at 10 ppm [3] [%] | mortality at 30 ppm [3] [%] | mortality at 500 ppm [3] [%] | mortality at 2500 ppm [4] [%] | mortality at 2500 ppm [5] [%] | mortality at 1 ppm [6] [%] | mortality at 10 ppm [6] [%] | mortality at 30 ppm [6] [%] | mortality at 2500 ppm [7] [%] | mortality at 500 ppm [8] [%] | mortality at 500 ppm [9] [%] | mortality at 500 ppm [10] [%] |
| --- | --- | --- | --- | --- | --- | --- | --- | --- | --- | --- | --- | --- | --- | --- | --- |
| CNC(=O)CONC(=O)c1cc(Cl)cc(C)c1NC(=O)c1cc(Br)nn1-c1ncccc1Cl [Compound 1-3, 5-bromo-2-(3-chloro-pyridin-2-yl)-2H-pyrazole-3-carboxylic acid (4-chloro-2-methyl-6-methylcarbamoylmethoxycarbamoyl-phenyl)-amide] | > 75 | > 75 | 100 | 100 | 100 | 100 | > 75 | > 75 | 100 | 100 | 100 | > 75 | 100 |  |  |
| CNC(=O)CONC(=O)c1cc(Br)cc(Br)c1NC(=O)c1cc(Br)nn1-c1ncccc1Cl [Compound 1-10, 5-bromo-2-(3-chloro-pyridin-2-yl)-2H-pyrazole-3-carboxylic acid (2,4-dibromo-6-methylcarbamoylmethoxycarbamoyl-phenyl)-amide] | > 75 | > 75 |  |  |  | 100 | > 75 | > 75 |  |  |  | > 75 | 100 | > 75 | > 75 |
| Cc1cc(Cl)cc(C(=O)NNCC(=O)NCc2ccccc2)c1NC(=O)c1cc(Br)nn1-c1ncccc1Cl [Compound 1-11, 5-bromo-2-(3-chloro-pyridin-2-yl)-2H-pyrazole-3-carboxylic acid {2-[N′-(benzylcarbamoyl-methyl)-hydrazinocarbonyl]-4-chloro-6-methyl-phenyl}-amide] | > 75 | > 75 |  |  |  | 100 | > 75 | > 75 |  |  |  | > 75 | 100 |  |  |
| CONC(=O)c1cc(Cl)cc(C)c1NC(=O)c1cc(Br)nn1-c1ncccc1Cl [Compound X-1, 5-bromo-2-(3-chloro-pyridin-2-yl)-2H-pyrazole 3-carboxylic acid (4-chloro-2-methoxycarbamoyl-6-methyl-phenyl)amide, reference compound] |  |  | 0 | 100 | 100 |  |  |  | 0 | 100 | 100 |  |  |  |  |
